# Reference: patent US6858620B2, “Condensed pyridoindole derivatives” (Lilly ICOS, LLC, priority 2000, dated 2005)
# Legend:
# human recombinant PDE5 = biological target: T1, human recombinant PDE5 (Homo sapiens, UniProt O76074); assay: Inhibitory effect on cGMP-PDE (PDE5 IC50, one-step assay); format: biochemical; conditions: in vitro, 0.15 μM 8-[H3]-cGMP, 30 minutes incubation
# T1 construct: host or cells: Saccharomyces cerevisiae strain BJ2-54 (ATCC 74465), described as an exemplary method
# Experimental: The compounds of structural formula (I) were tested for an ability to inhibit PDE5. The ability of a compound to inhibit PDE5 activity is related to the IC50 value for the compound, i.e., the concentration of inhibitor required for 50% inhibition of enzyme activity. The IC50 value for compounds of structural formula (I) were determined using recombinant human PDE5.
# cGMP-PDE activity of compounds of the present invention was measured using a one-step assay adapted from Wells et al., Biochim. Biophys. Acta, 384, 430 (1975). The reaction medium contained 50 mM Tris-HCl, pH 7.5, 5 mM magnesium acetate, 250 μg/ml 5′-Nucleotidase, 1 mM EGTA, and 0.15 μM 8-[H^3]-cGMP. Unless otherwise indicated, the enzyme used was a human recombinant PDE5 (ICOS Corp., Bothell, Wash.).
# Compounds of the invention were dissolved in DMSO finally present at 2% in the assay.
Compound,IC50 (human recombinant PDE5),melting point
"COc1ccc([C@@H]2c3[nH]c4ccccc4c3C[C@H]3C(=O)N(Cc4ccccc4)CN23)cc1 (racemic) [Example 12, (+−, cis)-2-Benzyl-10-(4-methoxyphenyl)-1,2,3a,4,9,10-hexahydro-2,9,10a-triazacyclopenta[b]fluoren-3-one]",0.06 µM,–
"O=C1CC(=O)N2C1Cc1c([nH]c3ccccc13)C2c1ccc2c(c1)OCO2 (centres unmarked) [Example 9, 5-Benzo[1,3]dioxol-5-yl-5,6,11,11a-tetrahydroindolizino[6,7-b]indole-1,3-dione]",0.2 µM,–
"O=C1CCN2[C@H](c3ccc4c(c3)OCO4)c3[nH]c4ccccc4c3C[C@H]12 (racemic) [Example 14, (+−, trans)-5-Benzo[1,3]dioxol-5-yl,2,3,5,6,11,11a-hexahydro-indolizino[6,7-b]indol-1-one]",0.39 µM,–
"O=C1OCC2Cc3c([nH]c4ccccc34)C(c3ccc4c(c3)OCO4)N12 (centres unmarked) [Example 13, 10-Benzo[1,3]dioxol-5-yl-3a,4,9,10-tetrahydro-3H-2-oxa-9,10a-diazacyclopenta[b]fluoren-1-one]",0.07 µM,–
"O=C1OC(=O)N2[C@H](c3ccc4c(c3)OCO4)c3[nH]c4ccccc4c3C[C@H]12 [Example 1, (3aR,10R)-(+)-10-Benzo[1,3]dioxol-5-yl-3a,4,9,10-tetrahydro-2-oxa-9,10a-diaza-cyclopenta[β]fluorene-1,3-dione]",0.205 µM,197 to 202 °C

# The remaining lines, values ahead:
IC50 (human recombinant PDE5),melting point,Compound
0.02 µM,–,"O=S1OCC2Cc3c([nH]c4ccccc34)C(c3ccc4c(c3)OCO4)N21 (centres unmarked) [Example 15, 10-Benzo[1,3]dioxol-5-yl-3a,4,9,10-tetrahydro-3H-2-oxa-1-thia-9,10a-diazacyclopenta[b]fluorene-1-oxide]"
0.06 µM,–,"CN1C[C@@H]2Cc3c([nH]c4ccccc34)[C@H](c3ccc4c(c3)OCO4)N2C1=O (racemic) [Example 11, (+−, cis)-10-Benzo[1,3]dioxol-5-yl-2-methyl-2,3,3a,4,9,10-hexahydro-2,9,10a-triazacyclopenta[b]fluoren-1-one]"
0.012 µM,168 to 174 °C,"CN1C(=O)N2[C@H](c3ccc4c(c3)OCO4)c3[nH]c4ccccc4c3C[C@H]2C1=S [Example 5, (3aS,10R)-10-Benzo(1,3)dioxol-5-yl-2-methyl-3-thioxo-2,3,3a,4,9,10-hexahydro-2,9,10a-triazacyclopenta[b]fluoren-1-one]"
0.012 µM,234 to 236 °C,"CN1C(=O)[C@@H]2Cc3c([nH]c4ccccc34)[C@@H](c3ccc4c(c3)OCO4)N2C1=S [Example 6, (3aS,10R)-10-Benzo(1,3)dioxol-5-yl-2-methyl-1-thioxo-1,2,3a,4,9,10-hexahydro-2,9,10a-triazacyclopenta[b]fluoren-3-one]"
0.053 µM,–,"O=C1OC(=S)N2[C@H](c3ccc4c(c3)OCO4)c3[nH]c4ccccc4c3C[C@H]12 [Example 3, (3aR,10R)-10-Benzo[1,3]dioxol-5-yl-1-thioxo3a,4,9,10-tetrahydro-2-oxa-9,10a-diaza-cyclopenta[β]fluoren-3-one]"
0.02 µM,–,"CCCCN1C(=O)[C@@H]2Cc3c([nH]c4ccccc34)[C@H](c3ccc(OC)cc3)N2C1=S (racemic) [Example 7, (+−, trans)-2-Butyl-10-(4-methoxyphenyl)-1-thioxo-1,2,3a,4,9,10-hexahydro-2,9,10a-triazacyclopenta-[b]fluoren-3-one]"
